Measurements as given in patent publication US7405201B2, “Antibacterial macrocycles” (Bayer Healthcare AG, priority 2001, dated 2008).
In brackets after ≈: the same amount, converted by molar mass. Where two headings read alike, the source gives them in different places. Positions of bridges follow the written chain, without caps; N, C: chain ends. Non-standard residues stand in square brackets, D forms with d. Residues, ends and D or L forms follow the SMILES beside them. ξ: configuration not given here. *: point of attachment. Phe(3,5-F2) = N[C@@H](Cc1cc(F)cc(F)c1)C(=O)O; Phe(3-Cl) = N[C@@H](Cc1cccc(Cl)c1)C(=O)O; ξPhe(3,5-F2) = NC(Cc1cc(F)cc(F)c1)C(=O)O; Pro(4R-Me) = C[C@H]1CN[C@H](C(=O)O)C1; Phe(2-F) = N[C@@H](Cc1ccccc1F)C(=O)O; Heptenoyl(2E) = CCCC/C=C/C(=O)*; NMeS = CN[C@@H](CO)C(=O)O; X4 = O=C(/C=C/C1CC=CCC1)*; NMeA = CN[C@@H](C)C(=O)O; X1 = CC(C)/C=C(\F)C(=O)*; X5 = CCCC(C)/C=C/C(=O)*; X2 = CCCCC/C=C/C(=O)*; ξPip = O=C(O)C1CCCCN1; X3 = O=C(C=C1CCC1)*

Columns and labels:
[1] = amide bond, EDC/pentafluorophenol (Pfp ester), then HCl/dioxane, then aq. NaHCO3, dichloromethane, 25.0 °C, 3 steps
[2] = system: Enterococcus faecalis ICB 27159; test: Minimum inhibitory concentration (MIC), liquid dilution test; assay type: cell-based; conditions: ICB27159, Müller Hinton broth, 37° C., 18-24 hours, 8-10% of CO2
Experimental: (§1) Determination of the Minimum Inhibitory Concentration (MIC): The MIC is determined in the liquid dilution test. Overnight cultures of the test microorganisms are diluted 1:5 000 or S. aureus 133 is diluted 1:10 000 in Müller Hinton broth (manufacturer: BBL) and incubated with dilutions of the test substances (dilution stages 1:2). Exceptions are the tests with S. pyogenes Wacker and S. pneumoniae 1707/4, which are carried out in Müller Hinton broth plus 20% bovine serum. The cultures are incubated at 37° C. for 18-24 hours; enterococci and streptococci in the presence of 8-10% of CO2. The lowest substance concentration in each case at which visible bacterial growth no longer takes place is defined as the MIC. […] The compounds show very good antibacterial action against most of the test microorganisms and thus a broad Gram-positive action.

[3] = system: Enterococcus faecium L 4001; test: as above; assay type: cell-based; conditions: L4001, Müller Hinton broth, 37° C., 18-24 hours, 8-10% of CO2
Experimental: as §1

[4] = system: Staphylococcus aureus 133; test: as above; assay type: cell-based; conditions: Müller Hinton broth, overnight culture diluted 1:10 000, 37° C., 18-24 hours
Experimental: as §1

[5] = system: Streptococcus pneumoniae 1707/4; test: as above; assay type: cell-based; conditions: Müller Hinton broth plus 20% bovine serum, 37° C., 18-24 hours, 8-10% of CO2
Experimental: as §1

[6] = system: Streptococcus pyogenes Wacker; test: as above; assay type: cell-based; conditions: Müller Hinton broth plus 20% bovine serum, 37° C., 18-24 hours, 8-10% of CO2
Experimental: as §1

Row | Structure (SMILES) | MIC [2] [µg/mL] | MIC [3] [µg/mL] | MIC [4] [µg/mL] | MIC [5] [µg/mL] | MIC [6] [µg/mL] | ring closure, yield of all isomers ([1]; from C[C@@H]1C[C@@H](C(=O)OC[C@H](NC(=O)OCc2ccccc2)C(=O)O)N(C(=O)[C@H](C)NC(=O)[C@@H]2CCCCN2C(=O)[C@@H]2CCCN2C(=O)OC(C)(C)C)C1, 2.58 mM, 16.0 h) [%] | ring closure, yield of all isomers ([1]; from C[C@H](NC(=O)[C@H](C)N(C)C(=O)[C@@H]1CCCN1C(=O)OC(C)(C)C)C(=O)N1CCC[C@H]1C(=O)OC[C@H](NC(=O)OCc1ccccc1)C(=O)O, 8.9 mM, 2.0 h) [%]
1 | C[C@@H]1C[C@H]2C(=O)OC[C@H](NC(=O)OCc3ccccc3)C(=O)N3CCC[C@H]3C(=O)N3CCCC[C@H]3C(=O)N[C@@H](C)C(=O)N2C1 | – | – | – | – | – | 60 | –
2 | C[C@@H]1NC(=O)[C@H](C)N(C)C(=O)[C@@H]2CCCN2C(=O)[C@@H](NC(=O)OCc2ccccc2)COC(=O)[C@@H]2CCCN2C1=O | – | – | – | – | – | – | 58
3 | C[C@@H]1NC(=O)[C@H](C)N(C)C(=O)[C@@H]2CCCN2C(=O)[C@@H](NC(=O)[C@H](Cc2ccccc2F)NC(=O)/C=C/C2CC=CCC2)COC(=O)[C@@H]2CCCN2C1=O (stereo partly drawn) [Example 28] (X4-[Phe(2-F)]SP[NMeA]AP; ester 2-C) | 8 (≈ 10.9 µM) | 4 (≈ 5.43 µM) | 8 (≈ 10.9 µM) | 1 | 2 | – | –
4 | CCCCC/C=C/C(=O)N[C@@H](Cc1cccc(Cl)c1)C(=O)N[C@H]1COC(=O)[C@@H]2CCCN2C(=O)[C@H](C)NC(=O)[C@H](C)N(C)C(=O)[C@@H]2CCCN2C1=O [Example 32] (X2-[Phe(3-Cl)]SP[NMeA]AP; ester 2-C) | 1 (≈ 1.35 µM) | 0.5 (≈ 0.673 µM) | 4 (≈ 5.38 µM) | 2 | 2 | – | –
5 | CCCC/C=C/C(=O)NC(Cc1cc(F)cc(F)c1)C(=O)N[C@H]1COC(=O)[C@@H]2CCCN2C(=O)CNC(=O)C2CCCCN2C(=O)[C@@H]2CCCN2C1=O (stereo partly drawn) [Example 61] ({Heptenoyl(2E)}-[ξPhe(3,5-F2)]SP[ξPip]GP; ester 2-C) | 32 (≈ 43.1 µM) | 32 (≈ 43.1 µM) | 64 (≈ 86.2 µM) | 16 | 16 | – | –
6 | CC(C)/C=C(\F)C(=O)N[C@@H](Cc1cc(F)cc(F)c1)C(=O)N[C@H]1COC(=O)[C@@H]2CCCN2C(=O)[C@H](C)NC(=O)[C@H](C)N(C)C(=O)[C@@H]2CCCN2C1=O [Example 84] (X1-[Phe(3,5-F2)]SP[NMeA]AP; ester 2-C) | 0.5 (≈ 0.68 µM) | 0.5 (≈ 0.68 µM) | 4 (≈ 5.44 µM) | 0.25 | 0.5 | – | –
7 | C[C@@H]1NC(=O)[C@H](C)N(C)C(=O)[C@@H]2CCCN2C(=O)[C@@H](NC(=O)[C@H](Cc2cc(F)cc(F)c2)NC(=O)C=C2CCC2)COC(=O)[C@@H]2CCCN2C1=O [Example 85] (X3-[Phe(3,5-F2)]SP[NMeA]AP; ester 2-C) | 2 (≈ 2.8 µM) | 4 (≈ 5.6 µM) | 32 (≈ 44.8 µM) | 1 | 2 | – | –

Now from value to compound, other results behind:

Row | MIC [2] [µg/mL] | MIC [3] [µg/mL] | MIC [4] [µg/mL] | MIC [5] [µg/mL] | MIC [6] [µg/mL] | Structure (SMILES) | ring closure, yield of all isomers ([1]; from C[C@@H]1C[C@@H](C(=O)OC[C@H](NC(=O)OCc2ccccc2)C(=O)O)N(C(=O)[C@H](C)NC(=O)[C@@H]2CCCCN2C(=O)[C@@H]2CCCN2C(=O)OC(C)(C)C)C1, 2.58 mM, 16.0 h) [%] | ring closure, yield of all isomers ([1]; from C[C@H](NC(=O)[C@H](C)N(C)C(=O)[C@@H]1CCCN1C(=O)OC(C)(C)C)C(=O)N1CCC[C@H]1C(=O)OC[C@H](NC(=O)OCc1ccccc1)C(=O)O, 8.9 mM, 2.0 h) [%]
8 | < 0.125 | < 0.125 | 0.25 (≈ 0.342 µM) | < 0.125 | 25 | CCCC/C=C/C(=O)N[C@@H](Cc1cc(F)cc(F)c1)C(=O)N[C@H]1COC(=O)[C@@H]2CCCN2C(=O)[C@H](C)NC(=O)[C@H](C)N(C)C(=O)[C@@H]2CCCN2C1=O [Example 1, (E)-Hept-2-enoic acid [(S)-2-(3,5-difluorophenyl)-1-((3S,7S,13S,16S,19S)-13,16,17-trimethyl-2,6,12,15,18-pentaoxo-5-oxa-1,11,14,17-tetraazatricyclo[17.3.0.0^7,11]docos-3-ylcarbamoyl)-ethyl]-amide] ({Heptenoyl(2E)}-[Phe(3,5-F2)]SP[NMeA]AP; ester 2-C) | – | –
9 | < 0.125 | < 0.125 | 0.5 (≈ 0.626 µM) | < 0.125 | 0.5 | C[C@@H]1C[C@H]2C(=O)OC[C@H](NC(=O)[C@H](Cc3cc(F)cc(F)c3)NC(=O)CCC3CCCCC3)C(=O)N3CCC[C@H]3C(=O)N3CCCC[C@H]3C(=O)N[C@@H](C)C(=O)N2C1 [Example 3, 3-Cylcohexylpropanoic acid [(S)-2-(3,5-difluorophenyl)-1-((3S,9S,13S,15R,19S,22S)-15,19-Dimethyl-2,8,12,18,21-pentaoxo-11-oxa-1,7,17,20-tetraaza-tetracyclo[20.4.0.0^3,7.0^13,17]hexacos-9-ylcarbamoyl)-ethyl]-amide] | – | –
10 | < 0.125 | < 0.125 | < 0.125 | 0.125 | 0.25 | CCCC/C=C/C(=O)N[C@@H](Cc1cc(F)cc(F)c1)C(=O)N[C@H]1COC(=O)[C@@H]2C[C@@H](C)CN2C(=O)[C@H](C)NC(=O)[C@H](C)N(C)C(=O)[C@@H]2CCCN2C1=O [Example 6] ({Heptenoyl(2E)}-[Phe(3,5-F2)]SP[NMeA]A[Pro(4R-Me)]; ester 2-C) | – | –
11 | < 0.125 | < 0.125 | 0.25 (≈ 0.335 µM) | < 0.125 | < 0.125 | CCCC/C=C/C(=O)N[C@@H](Cc1cc(F)cc(F)c1)C(=O)N[C@H]1COC(=O)[C@@H]2CCCN2C(=O)[C@H](C)NC(=O)[C@H](CO)N(C)C(=O)[C@@H]2CCCN2C1=O [Example 13] ({Heptenoyl(2E)}-[Phe(3,5-F2)]SP[NMeS]AP; ester 2-C) | – | –
12 | < 0.125 | < 0.125 | 0.5 (≈ 0.671 µM) | < 0.125 | 0.25 | CCCC(C)/C=C/C(=O)N[C@@H](Cc1cc(F)cc(F)c1)C(=O)N[C@H]1COC(=O)[C@@H]2CCCN2C(=O)[C@H](C)NC(=O)[C@H](C)N(C)C(=O)[C@@H]2CCCN2C1=O (stereo partly drawn) [Example 75] (X5-[Phe(3,5-F2)]SP[NMeA]AP; ester 2-C) | – | –
13 | < 0.125 | < 0.125 | 0.25 (≈ 0.325 µM) | 0.5 | 1 | C=CCC/C=C/C(=O)N[C@@H](Cc1cc(F)cc(F)c1)C(=O)N[C@H]1COC(=O)[C@@H]2C[C@@H](C)CN2C(=O)[C@H](C)NC(=O)[C@@H]2CCCCN2C(=O)[C@@H]2CCCN2C1=O [Example 79] | – | –
